In PubChem BioAssay (NCI):
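1) Cells in 96-well plates. 2) Compound, 48 h, 5 concentrations. 3) Linear interpolation between surrounding doses. 4) Unreached endpoint = highest concentration. At the TGI there is no net growth.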

Legend:
Assay in all cases: NCI-60 cell line screen, 48 h
[1] = tested on: CAKI-1 renal
[2] = tested on: HOP-62 NSCLC
[3] = tested on: HS 578T breast
[4] = tested on: MDA-MB-231 breast
[5] = tested on: MOLT-4 leukemia
[6] = tested on: OVCAR-8 ovarian
[7] = tested on: RXF 393 renal
[8] = tested on: SK-MEL-28 melanoma
[9] = tested on: SK-MEL-5 melanoma
[10] = tested on: SK-OV-3 ovarian
[11] = tested on: SW-620 colon
[12] = tested on: TK-10 renal
[13] = tested on: U251 CNS
[14] = tested on: RPMI-8226 leukemia

Row | Structure (SMILES) | TGI [1] [µM] | TGI [2] [µM] | TGI [3] [µM] | TGI [4] [µM] | TGI [5] [µM] | TGI [6] [µM] | TGI [7] [µM] | TGI [8] [µM] | TGI [9] [µM] | TGI [10] [µM] | TGI [11] [µM] | TGI [12] [µM] | TGI [13] [µM] | TGI [14] [µM]
1 | CC(=O)O[C@H]1[C@@H](OC2CCCC2(c2ccccc2)c2ccccc2)O[N+]([O-])=C[C@@]12COCc1cc3c(cc12)OCO3 (stereo partly drawn) | > 100 | 7.67 | > 100 | > 43.2 | > 22.9 | > 100 | 17.5 | > 28.4 | 16.8 | > 91.6 | > 100 | > 24.7 | 22.6 | 
2 | O=C1C=CC[C@H](/C=C/C[C@@H](O)C[C@H](O)/C=C/c2ccccc2)O1 | 19.9 | 30.9 | 60.2 | 22.2 | 39.6 | 32.9 | 22.1 | 30.8 | 27.4 | 28.3 | 27.4 | 24 | 25.7 | 
3 | COc1ccc(C(=O)/C=C/c2ccc(OCC(=O)O)cc2)cc1 | > 100 | > 100 | > 100 | > 100 | > 100 | > 100 | > 100 | > 100 | > 100 |  | > 100 | > 100 | 79.9 | > 100
4 | COC1=CC(=O)c2c(O)ccc(O)c2C1=O |  | 10.9 | 19.5 | 10.1 | 44.3 | 55.5 | 31.3 | 3.71 | 2.65 | 33 | 17.7 | 28.3 | 22.1 | 38.2
5 | CCCC(=O)/C=C/S/C=C/C(=O)CCC | 7.4 | 42.6 | 36.3 | 23.8 |  | 5.46 | 21.4 | 18.7 | 16.1 | > 100 | 6.05 | 14.5 | 66.2 | 
6 | N#CC(C#N)=Cc1ccc(C=C2SC3=C(SCCS3)S2)s1 | > 100 | > 100 | > 100 | > 100 | > 100 | > 100 |  | > 100 | > 100 | > 100 | > 100 | 68.6 | > 100 | 6.28
7 | O=c1c2ccccc2c2c1c1c3ccccc3c(=O)c1c1c3ccccc3c(=O)c21 | > 100 | > 100 | > 100 | > 100 | > 100 | > 100 |  | > 100 | > 100 | > 100 | > 100 | > 100 | > 100 | > 100
8 | CN(C)CS/C(N)=N\C(O)C(Cl)(Cl)Cl (stereo not drawn) | > 100 | > 100 | > 100 | > 100 | > 100 | > 100 | > 100 | > 100 | > 100 |  | > 100 | > 100 | > 100 | 
9 | CC(=O)O[C@H]1[C@H](OC(C)=O)[C@@H](CN=[N+]=[N-])OCO[C@@H]1CN=[N+]=[N-] |  | > 100 | > 100 | > 100 | > 100 | > 100 | > 100 | > 100 | > 100 | > 100 | > 100 | > 100 | > 100 | > 100
10 | COc1cc(C2c3[nH]c4ccc(F)cc4c3C[C@H]3COC(=O)N23)cc(OC)c1O (stereo partly drawn) | 44.7 | 21.6 | 13 | 47.4 | > 100 | 39.3 | 19.1 | 33.6 | 34.7 | 57.2 |  |  | 25 | > 100
11 | CC(=O)N1C(C(=O)NNc2ccccc2)CSC1c1ccccc1 (stereo not drawn) | > 100 | > 100 | > 100 | > 100 | > 100 | > 100 |  |  | > 100 | > 100 | > 100 | > 100 | > 100 | > 100
12 | COc1ccc(-c2oc3cc(OC)c(OC)c(OC)c3c(=O)c2OC)cc1OC | > 100 | > 100 | > 100 | > 100 | > 100 | > 100 | > 100 | > 100 | > 100 | > 100 | > 100 | > 100 | > 100 | 
13 | c1ccc(/N=N\Nc2ccc(-c3nc4ccccc4o3)cc2)nc1 |  | > 100 | > 100 | > 100 | 61.1 | > 100 |  | > 100 | 30.3 | > 100 | 42.1 | > 100 | > 100 | 
14 | CC1C2(C)OC(=N)C(C#N)(C(c3ccco3)O2)C1(C#N)C#N (stereo not drawn) | 27.4 |  | 80.8 | 39.5 | > 100 | > 100 | 51.4 | 46.2 | 28.1 | > 100 | 40.4 | > 100 | 51.5 | 
15 | c1cc2cc(c1)CN1CCNCCN(CCNCC1)Cc1cccc(c1)CN1CCNCCN(CCNCC1)C2 |  | > 100 | > 100 | > 100 | > 100 | > 100 |  | > 100 | > 100 | > 100 | > 100 | > 100 | > 100 | > 100
16 | CC(=O)O[C@H]1CC[C@H]2[C@@H]3CCC4=C(C(=O)C=CC4(C)OC(C)=O)[C@H]3CC[C@]12C (stereo partly drawn) | > 100 | > 100 | > 100 | > 100 | > 100 | > 100 | 92.1 | > 100 | > 100 |  | > 100 | > 100 | > 100 | > 100
17 | COc1ccccc1-c1nc2ccccc2c(=O)[nH]1 | > 100 | > 100 | > 100 | > 100 | > 100 | > 100 | > 100 |  | > 100 | > 100 | > 100 |  | > 100 | > 100
18 | NC1=NN(c2ccccc2)C2(c3ccncc3C(=O)O)C1C(N)=NN2c1ccccc1 (stereo not drawn) | > 100 |  | > 100 | > 100 | > 100 | > 100 | > 100 | > 100 | > 100 | > 100 | > 100 |  | > 100 | > 100
19 | NC(N)=NS(=O)(=O)c1ccc(Nc2c3ccccc3nc3c(C(=O)NC(CO)(CO)CO)cccc23)cc1 | > 100 | 87.4 | 41.2 | > 100 | > 100 | > 100 |  | > 100 | 57.5 | > 100 | > 100 | 94.5 | > 100 | 58.5
20 | COc1ccc(/C=C(\C(=O)OCC(C)C)c2ccc(OC)c(OC)c2)cc1OC | > 100 | > 100 | > 100 | 61.5 | > 100 | > 100 | > 100 | > 100 | > 100 |  | > 100 | > 100 | > 100 | > 100
21 | CC(=O)OCC1OC(n2c3c(cc(C#N)c2=S)CCCCCC3)C(OC(C)=O)C(OC(C)=O)C1OC(C)=O (stereo not drawn) |  | > 100 | > 100 | > 100 | > 100 | > 100 | > 100 | > 100 | > 100 |  |  | > 100 | > 100 | > 100
22 | O=c1[nH]c(=O)n(C2OC(CO)C(O)C2O)cc1OCCc1ccccc1 (stereo not drawn) | > 100 | > 100 | > 100 | > 100 | > 100 | > 100 | > 100 | > 100 | > 100 | > 100 | > 100 | > 100 |  | 
23 | c1nc(SSc2ncnc3nc[nH]c23)c2[nH]cnc2n1 | 1.07 | > 100 | > 100 | > 56.5 | > 40.4 | > 100 | > 100 | > 100 | 37.6 | > 100 | > 100 |  | > 100 | > 100
24 | Clc1ccc2c(c1)CC1C[N+]3=C(CCCC3)C1=C2 (stereo not drawn) | > 100 | > 100 | > 100 | > 100 | > 100 | > 100 | > 100 | > 100 | > 100 | > 100 | > 100 | > 100 | > 100 | 
25 | Cc1nc(N)c(N2CCN(Cc3ccccc3)CC2)c(=O)[nH]1 |  | > 100 | > 100 | > 100 | > 100 | > 100 |  | > 100 |  |  | > 100 | > 100 | > 100 | > 100
26 | c1ccc(SC(Sc2ccccc2)c2ccc3c(c2)OCO3)cc1 | > 100 | > 100 | > 100 | > 100 | > 100 | > 100 | > 100 | > 100 | > 100 |  | > 100 | > 100 | > 100 | 
27 | CCN(CC)CCNc1ccc2ncn3c4c(OC)cccc4c(=O)c1c23 | > 100 | 98 | 30.5 | 25.6 |  | 55.6 | 11.6 | 21.7 | 13.3 | 24 | 15.9 | 77.7 | 19.3 | 
